Data published in patent publication US8143421B2, “Broadspectrum substituted benzimidazole sulfonamide HIV protease inhibitors” (priority 2002, dated 2012).

Tests used:
mutant C = assay: Antiviral spectrum, fold resistance towards mutant C; format: cell-based; conditions: FR=IC50(mutant strain)/IC50(HIV-1 strain LAI)
Protocol: (§1) Because of the increasing emergence of drug resistant HIV strains, the present compounds were tested for their potency against clinically isolated HIV strains harboring several mutations. These mutations are associated with resistance to protease inhibitors and result in viruses that show various degrees of phenotypic cross-resistance to the currently commercially available drugs such as for instance saquinavir, ritonavir, nelfinavir, indinavir and amprenavir. The viral strains R13025, R13027, R13028, R13029, R13034, R13080, T13127 and R13363 contained mutations as indicated below in Table 3.

mutant B = assay: Antiviral spectrum, fold resistance towards mutant B; format: cell-based; conditions: FR=IC50(mutant strain)/IC50(HIV-1 strain LAI)
Protocol: as §1

HIV-1 strain LAI = assay: Cellular anti-HIV assay, MT4 cells, MTT readout, wild type HIV-1 strain LAI; format: cell-based; conditions: for pIC50 (LAI): Table 1, MT4 cells, five days, HIV-1 strain LAI; for WT (pIC50 against wild type HIV-LAI strain): Table 4
Protocol: The compounds of the present invention were examined for anti-viral activity in a cellular assay. […] The cellular assay was performed according to the following procedure.

mutant F = assay: Antiviral spectrum, fold resistance towards mutant F; format: cell-based; conditions: FR=IC50(mutant strain)/IC50(HIV-1 strain LAI)
Protocol: as §1

mutant E = format: cell-based; conditions: FR=IC50(mutant strain)/IC50(HIV-1 strain LAI)
Protocol: (§2) HIV- or mock-infected MT4 cells were incubated for five days in the presence of various concentrations of the inhibitor. […] Cell viability is measured by measuring the concentration of MTT, a yellow, water soluble tetrazolium dye that is converted to a purple, water insoluble formazan in the mitochondria of living cells only. Upon solubilization of the resulting formazan crystals with isopropanol, the absorbance of the solution is monitored at 540 nm. The values correlate directly to the number of living cells remaining in the culture at the completion of the five day incubation. The inhibitory activity of the compound was monitored on the virus-infected cells and was expressed as IC50 and IC90. These values represent the amount of the compound required to protect 50% and 90%, respectively, of the cells from the cytopathogenic effect of the virus. […] The selectivity index (SI) (ratio CC50/IC50) is an indication of the selectivity of the anti-HIV activity of the inhibitor. Wherever results are reported as e.g. pIC50 or pCC50 values, the result is expressed as the negative logarithm of the result expressed as IC50 or CC50 respectively.
(§3) Because of the increasing emergence of drug resistant HIV strains, the present compounds were tested for their potency against clinically isolated HIV strains harboring several mutations. […] The viral strains R13025, R13027, R13028, R13029, R13034, R13080, T13127 and R13363 contained mutations as indicated below in Table 3.
(§4) As a measure of the broad spectrum activity of the present compounds, the fold resistance (FR), defined as FR=IC50(mutant strain)/IC50(HIV-1 strain LAI), was determined.

mutant A = format: cell-based; conditions: FR=IC50(mutant strain)/IC50(HIV-1 strain LAI)
Protocol: as §2, §3, §4

mutant D = assay: Antiviral spectrum, fold resistance towards mutant D; format: cell-based; conditions: FR=IC50(mutant strain)/IC50(HIV-1 strain LAI)
Protocol: as §1

mock-infected MT4 cells = assay: Toxicity on mock-infected MT4 cells (CC50)
Protocol: as §2, §4

mutant G = assay: Antiviral spectrum, fold resistance towards mutant G; format: cell-based; conditions: FR=IC50(mutant strain)/IC50(HIV-1 strain LAI)
Protocol: as §1

[1] = pCC50 value as determined with mock transfected cells

Compound	FR towards mutant C (mutant C)	FR towards mutant B (mutant B)	pIC50 (LAI) (HIV-1 strain LAI)	WT (pIC50 against wild type HIV-LAI strain) (HIV-1 strain LAI)	FR towards mutant F (mutant F)	FR towards mutant E (mutant E)	FR value towards mutant A (mutant A)	FR towards mutant D (mutant D)	Tox (pCC50) (mock-infected MT4 cells; [1])	FR towards mutant G (mutant G)	Tox (pCC50) (mock-infected MT4 cells)
CC(C)CN(C[C@@H](O)[C@H](Cc1ccccc1)NC(=O)OCc1cccnc1)S(=O)(=O)c1ccc2nc(N)[nH]c2c1 [Compound 54]	0.42	0.40	5.8	5.8	1.7	0.42	1.6	0.46	<4		
COC(=O)Nc1nc2ccc(S(=O)(=O)N(CC(C)C)C[C@@H](O)[C@H](Cc3ccccc3)NC(=O)COc3c(C)cc(N(C)C)cc3C)cc2[nH]1 [Compound 19]	1.4	1.2	7.5	7.5	83	3.5	5.6	3.6	<4		
[(1S,2R)-2-hydroxy-3-[(2-methylpropyl)[[1-(2-methyl-propyl)benzimidazol-6-yl]sulfonyl]amino]-1-(phenylmethyl)propyl]carbamic acid, [(3R,3aS,6aR)-hexahydrofuro[2,3-b]furan-3-yl]ester [Compound 7]	0.45		8.6	8.6	72	2.1		1.2	<4	174	
CC(C)CN(C[C@@H](O)[C@H](Cc1ccccc1)NC(=O)OCc1cncs1)S(=O)(=O)c1ccc2nc(N)[nH]c2c1 [Compound 57]	0.31	0.30	5.7	5.7	0.30	0.32	0.37	0.34		2.0	<4
CC(=O)Nc1nc2ccc(S(=O)(=O)N(CC(C)C)C[C@@H](O)[C@H](Cc3ccccc3)NC(=O)OC3COC4OCCC34)cc2[nH]1 (some centres unmarked) [Compound 38]	0.39	0.32	6.7	6.7	0.21	0.17	0.12	0.19		0.60	<4
CC(C)CN(CC(O)C(Cc1ccccc1)NC(=O)OC1COC2OCCC12)S(=O)(=O)c1ccc2nc(CO)[nH]c2c1 (centres unmarked) [Compound 56]	0.43	0.66	5.7	5.7	0.34	0.18	0.28	0.18		0.83	<4
CC(C)CN(C[C@@H](O)[C@H](Cc1ccccc1)NC(=O)O[C@H]1CCOC1)S(=O)(=O)c1ccc2nc(NC(=O)NCCN(C)C)[nH]c2c1 [Compound 52]	3.5	2.9	6.1	6.1	4.3	3.4	4.2	3.0			<5
CC(C)CN(C[C@@H](O)[C@H](Cc1ccccc1)NC(=O)O[C@H]1CCOC1)S(=O)(=O)c1ccc2ncn(C)c2c1 [Compound 16]	2.6		7.7	7.7	288	5.4		5.9			<4.49
CC(C)CN(C[C@@H](O)[C@H](Cc1ccccc1)NC(=O)OCc1cncs1)S(=O)(=O)c1ccc2nc[nH]c2c1 [Compound 23]	3.5	2.3	7.3	7.3	23	4.8	7.1	2.5			<4
Cc1cccc(C)c1OCC(=O)N[C@@H](Cc1ccccc1)[C@H](O)CN(CC(C)C)S(=O)(=O)c1ccc2nc(N)n(C)c2c1 [Compound 13]	2.5	3.4	7.7	7.7		4.5		3.4			<4
CC(C)CN(CC(O)C(Cc1ccccc1)NC(=O)OC1COC2OCCC12)S(=O)(=O)c1ccc2nc(NC(=O)OCCN(C)C)[nH]c2c1 (centres unmarked) [Compound 48]	0.38	1.9	6.4	6.4	0.35	0.32	0.37	0.35	<4	0.85	
COc1ccc(C(=O)Nc2nc3ccc(S(=O)(=O)N(CC(C)C)C[C@@H](O)[C@H](Cc4ccccc4)NC(=O)COc4c(C)cccc4C)cc3[nH]2)cc1 [Compound 37]	0.95	0.35	6.9	6.9	7.9	1.3	1.0	1.9		21	
CC(C)CN(C[C@@H](O)[C@H](Cc1ccccc1)NC(=O)O[C@H]1CCOC1)S(=O)(=O)c1ccc2ncn(CCc3ccccc3)c2c1 [Compound 15]	2.4	6.3	7.7	7.7	269	6.2		5.4	4.2	407	
COC(=O)Nc1nc2ccc(S(=O)(=O)N(CC(C)C)C[C@@H](O)[C@H](Cc3ccccc3)NC(=O)COc3c(C)cccc3C)cc2[nH]1 [Compound 6]	2.7		8.6	8.6	10	1.6	2.9	2.1		60	<4
